In US8067424B2, “Selective inhibitors for cyclin-dependent kinases” (Emory University, priority 2007, dated 2011):
Read-outs that look alike come from different tables or passages of the source.

What was measured:
Format in all cases: biochemical
NEK6 = NEK6 (Homo sapiens, UniProt Q9HC98); assay: Kinase screen: NEK6 assay
Method: (§1) Generally, the same procedure was used for all assays. Since the total assay volume was 25.5 microliters, 0.5 microliters of inhibitors at 51× assay concentration were added to the plates before any other addition.
(§2) The basic procedure was to add 0.5 microliters inhibitor/control in DMSO to plate. Fifteen microliters of enzyme/substrate/buffer mix were added and incubated for 5 min. Ten microliters MgATP at the relevant concentration were added and incubated for 30 min. The assay was stopped by adding 5 microliters of 3% orthophosphoric acid. The assay was transferred to a p81 filter plate and read in a scintillation counter of 30 sec/well. Note that this assay procedure was not followed for MKK1, which instead involved a two-step assay, and PKC alpha, which required the addition of lipid vesicles.
(500-1000 cpm/pmole) and incubated for 30 min at room temperature. Assays were stopped by addition of 5 μl of 0.5 M (3%) orthophosphoric acid and then harvested onto P81 Unifilter plates with a wash buffer of 50 mM orthophosphoric acid.

SmMLCK = SmMLCK (Homo sapiens, UniProt Q15746); assay: Kinase screen: smMLCK assay
Sequence of SmMLCK (Q15746 923-1914): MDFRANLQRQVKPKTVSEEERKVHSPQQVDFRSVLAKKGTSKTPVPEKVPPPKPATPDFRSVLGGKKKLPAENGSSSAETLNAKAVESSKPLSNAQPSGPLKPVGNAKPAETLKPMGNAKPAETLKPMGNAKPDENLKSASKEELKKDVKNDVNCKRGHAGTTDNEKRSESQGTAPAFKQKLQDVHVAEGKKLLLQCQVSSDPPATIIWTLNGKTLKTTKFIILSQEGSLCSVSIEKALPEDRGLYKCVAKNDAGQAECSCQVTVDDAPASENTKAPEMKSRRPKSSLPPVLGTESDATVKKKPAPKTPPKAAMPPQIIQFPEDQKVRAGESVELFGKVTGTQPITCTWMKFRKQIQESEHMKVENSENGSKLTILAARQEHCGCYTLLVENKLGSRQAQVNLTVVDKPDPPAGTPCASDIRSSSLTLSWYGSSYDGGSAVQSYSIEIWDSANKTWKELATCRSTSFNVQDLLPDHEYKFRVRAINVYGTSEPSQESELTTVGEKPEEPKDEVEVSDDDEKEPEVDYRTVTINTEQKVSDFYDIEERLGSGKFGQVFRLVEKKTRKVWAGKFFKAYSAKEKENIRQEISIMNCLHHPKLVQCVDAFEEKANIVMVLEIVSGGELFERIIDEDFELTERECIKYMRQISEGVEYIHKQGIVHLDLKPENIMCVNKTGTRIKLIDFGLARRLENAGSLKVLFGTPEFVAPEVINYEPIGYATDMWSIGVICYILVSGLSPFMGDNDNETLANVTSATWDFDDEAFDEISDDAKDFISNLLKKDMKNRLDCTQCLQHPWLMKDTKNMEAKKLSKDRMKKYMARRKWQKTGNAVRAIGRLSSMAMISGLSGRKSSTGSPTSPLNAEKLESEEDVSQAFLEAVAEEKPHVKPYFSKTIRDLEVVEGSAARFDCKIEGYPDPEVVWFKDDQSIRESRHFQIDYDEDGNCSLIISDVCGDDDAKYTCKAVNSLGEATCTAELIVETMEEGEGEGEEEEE
Method: as §1, §2
(500-1000 cpm/pmole) and incubated for 30 mins at room temperature. Assays were stopped by addition of 5 μl of 0.5M (3%) orthophosphoric acid. Assays were harvested onto P81 Unifilter plates using a wash buffer of 50 mM orthophosphoric acid.

CK1 = CK1 (Homo sapiens, UniProt P48730); assay: Kinase screen: CK1 assay
Sequence of CK1 (P48730 whole entry): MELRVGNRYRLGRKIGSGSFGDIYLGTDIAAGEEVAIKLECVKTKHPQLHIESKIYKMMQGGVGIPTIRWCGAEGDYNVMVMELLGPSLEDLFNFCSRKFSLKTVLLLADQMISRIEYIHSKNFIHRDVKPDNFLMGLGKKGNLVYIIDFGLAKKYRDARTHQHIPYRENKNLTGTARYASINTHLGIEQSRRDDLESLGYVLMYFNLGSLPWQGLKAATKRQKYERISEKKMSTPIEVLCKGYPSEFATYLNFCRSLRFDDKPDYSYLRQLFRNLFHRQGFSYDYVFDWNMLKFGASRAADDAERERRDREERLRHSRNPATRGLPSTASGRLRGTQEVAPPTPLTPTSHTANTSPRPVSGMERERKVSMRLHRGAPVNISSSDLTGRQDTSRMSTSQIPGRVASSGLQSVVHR
Method: as §2, with “Generally, the same procedure was used for all assays. […] The basic” for “The basic”, “30 min. […] The assay” for “30 min. The assay was stopped by adding 5 microliters of 3% orthophosphoric acid. The assay”, “lipid vesicles. CK1 assay: […]” for “lipid vesicles.”

CHK1 = molecular target: T1, CHK1 (Homo sapiens, UniProt O14757); assay: Kinase screen: CHK1 assay
T1 sequence (O14757 1-476): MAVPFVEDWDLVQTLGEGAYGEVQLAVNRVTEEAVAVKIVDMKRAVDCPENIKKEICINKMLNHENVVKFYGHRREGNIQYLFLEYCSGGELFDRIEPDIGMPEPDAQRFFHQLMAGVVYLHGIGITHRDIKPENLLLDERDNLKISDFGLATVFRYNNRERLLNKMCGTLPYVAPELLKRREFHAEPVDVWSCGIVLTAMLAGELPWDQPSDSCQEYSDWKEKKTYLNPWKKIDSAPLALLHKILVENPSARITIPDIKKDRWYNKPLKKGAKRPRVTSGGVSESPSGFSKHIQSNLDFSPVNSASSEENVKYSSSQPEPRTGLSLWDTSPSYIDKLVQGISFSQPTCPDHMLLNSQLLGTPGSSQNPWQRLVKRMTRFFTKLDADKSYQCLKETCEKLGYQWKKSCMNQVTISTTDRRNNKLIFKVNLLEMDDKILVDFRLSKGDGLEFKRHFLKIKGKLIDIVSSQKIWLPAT
Method: as §1, §2
CHK1 assay: CHK1 (5-20 mU diluted in 20 mM MOPS pH 7.5, 1 mM EDTA, 0.1% b-mercaptoethanol, 0.01% Brij-35, 5% glycerol, 1 mg/ml BSA) was assayed against CHKtide substrate peptide ([…]) (SEQ ID NO: 12) in a final volume of 25.5 μl containing 8 mM MOPS pH 7.0, 0.2 mM EDTA, 200 μM CHKtide, 10 mM magnesium acetate and 0.02 mM [33P-g-ATP] (50-1000 cpm/pmole) and incubated for 30 min at room temperature Assays were stopped by addition of 5 μl of 0.5 M (3%) orthophosphoric acid and then harvested onto P81 Unifilter plates with a wash buffer of 50 mM orthophosphoric acid.

YES1 = YES1 (Homo sapiens, UniProt P07947); assay: Kinase screen: YES1 assay; conditions: 10 micromolar compound; for remaining activity at 10 µM: read-out: mean activity remaining (as a percentage of the original activity), YES1
Sequence of YES1 (P07947 whole entry, species assumed): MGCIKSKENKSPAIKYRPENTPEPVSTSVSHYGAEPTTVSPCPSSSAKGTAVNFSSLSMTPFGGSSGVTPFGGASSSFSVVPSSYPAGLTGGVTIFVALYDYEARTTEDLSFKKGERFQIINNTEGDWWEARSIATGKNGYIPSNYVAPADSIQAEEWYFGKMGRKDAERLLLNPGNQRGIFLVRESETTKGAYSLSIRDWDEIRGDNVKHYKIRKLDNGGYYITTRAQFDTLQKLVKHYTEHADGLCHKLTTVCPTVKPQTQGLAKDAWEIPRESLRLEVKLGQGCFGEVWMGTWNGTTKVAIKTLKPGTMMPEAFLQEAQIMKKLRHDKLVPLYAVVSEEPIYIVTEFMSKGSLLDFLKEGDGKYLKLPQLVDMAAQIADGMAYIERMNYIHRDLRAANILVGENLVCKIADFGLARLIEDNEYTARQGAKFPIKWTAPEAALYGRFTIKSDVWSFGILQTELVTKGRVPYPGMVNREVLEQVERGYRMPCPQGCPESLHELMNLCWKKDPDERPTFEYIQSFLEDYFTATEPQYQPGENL
Method: as §1, §2
(§3) YES1 assay: YES1 (5-20 mU diluted in 50 mM Tris pH 7.5, 0.1 mM EGTA, 1 mg/ml BSA) was assayed against a substrate peptide (Poly Glut Tyr) in a final volume of 25.5 μl containing 50 mM Tris pH 7.5, 1 mg/ml substrate peptide, 10 mM magnesium acetate and 0.02 mM [33P-g-ATP] (50-1000 cpm/pmole) and incubated for 30 min at room temperature. Assays were stopped by addition of 5 μl of 0.5 M (3%) orthophosphoric acid and then harvested onto P81 Unifilter plates with a wash buffer of 50 mM orthophosphoric acid.

VEG-FR = assay: Kinase screen: VEG-FR assay; conditions: 10 micromolar compound
Method: as §1, §2
as §3, with “VEG-FR assay: VEG-FR” for “YES1 assay: YES1”, “VEG-FR assay: VEG-FR (5-20 mU” for “YES1 assay: YES1 (5-20 mU”, “substrate peptide ([…]) (SEQ ID NO: 35) in a” for “substrate peptide (Poly Glut Tyr) in a”, “pH 7.5, 300 μM substrate peptide,” for “pH 7.5, 1 mg/ml substrate peptide,”

SYK = SYK (Homo sapiens, UniProt P43405); assay: Kinase screen: SYK assay; conditions: 10 micromolar compound; for remaining activity at 10 µM: read-out: mean activity remaining (as a percentage of the original activity), SYK
Method: as §1, §2
as §3, with “SYK” for “YES1”

[1] = 10 micromolar compound, read-out: mean activity remaining (as a percentage of the original activity), NEK 6
[2] = 10 micromolar compound, read-out: mean activity remaining (as a percentage of the original activity), SmMLCK
[3] = 0.5 h, 10 micromolar compound, read-out: mean activity remaining (as a percentage of the original activity), CK 1
[4] = 10 micromolar compound, read-out: mean activity remaining (as a percentage of the original activity), CHK 1

Sequence of NEK6 (Q9HC98 whole entry, species assumed): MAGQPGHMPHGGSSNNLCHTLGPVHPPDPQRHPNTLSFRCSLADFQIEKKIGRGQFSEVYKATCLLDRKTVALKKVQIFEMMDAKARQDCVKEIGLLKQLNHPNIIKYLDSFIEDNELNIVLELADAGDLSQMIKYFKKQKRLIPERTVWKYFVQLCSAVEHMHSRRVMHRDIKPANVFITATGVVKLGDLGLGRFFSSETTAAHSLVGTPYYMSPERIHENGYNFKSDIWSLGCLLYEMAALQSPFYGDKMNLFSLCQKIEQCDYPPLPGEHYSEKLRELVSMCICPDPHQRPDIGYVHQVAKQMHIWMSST

Row | SMILES | remaining activity at 10 µM (NEK6; NEK6, 10 μM, read-out: Mean Remaining Enzyme Activity (%)) [%] | remaining activity at 10 µM (SmMLCK; SmMLCK, 10 μM, read-out: Mean Remaining Enzyme Activity (%)) [%] | remaining activity at 10 µM (CK1; CK1, 10 μM, read-out: Mean Remaining Enzyme Activity (%)) [%] | remaining activity at 10 µM (CHK1; CHK1, 10 μM, read-out: Mean Remaining Enzyme Activity (%)) [%] | remaining activity at 10 µM (NEK6; [1]) [%] | remaining activity at 10 µM (YES1) [%] | remaining activity at 10 µM (SmMLCK; [2]) [%] | remaining activity at 10 µM (CK1; [3]) [%] | remaining activity at 10 µM (CHK1; [4]) [%] | mean activity remaining (as a percentage of the original activity), VEG-FR (VEG-FR) [%] | remaining activity at 10 µM (SYK) [%] | remaining activity at 10 µM (CK1; 0.5 h, read-out: mean activity remaining (as a percentage of the original activity), CK 1) [%] | mean activity remaining (as a percentage of the original activity), NEK 6 (NEK6; 10 micromolar compound) [%] | mean activity remaining (as a percentage of the original activity), YES1 (YES1) [%] | mean activity remaining (as a percentage of the original activity), SmMLCK (SmMLCK; 10 micromolar compound) [%] | mean activity remaining (as a percentage of the original activity), CK 1 (CK1; 10 micromolar compound) [%] | mean activity remaining (as a percentage of the original activity), CHK 1 (CHK1; 10 micromolar compound) [%] | mean activity remaining (as a percentage of the original activity), SYK (SYK) [%]
1 | CC(C)c1cnn2c(NCc3ccccc3)cc(NCCCCCCCN)nc12 [BS-181] | 85 | 35 | 29 | 80 |  |  |  |  |  |  |  |  |  |  |  |  |  | 
2 | C=C[C@H](CO)Nc1cc(NCc2ccccc2)n2ncc(C(C)C)c2n1 [ICEC0065] |  |  |  |  | 105 | 90 | 92 | 19 | 87 | 101 | 104 |  |  |  |  |  |  | 
3 | CC[C@H](CO)Nc1cc(NCc2ccccc2)n2ncc(C(C)C)c2n1 [ICEC0067] |  |  |  |  | 101 | 87 | 81 | 16 | 100 | 99 | 104 |  |  |  |  |  |  | 
4 | CC(C)c1cnn2c(NCc3ccccc3)cc(N[C@@H](CO)[C@H](O)CO)nc12 [ICEC0318, (3S)-3-(7-(Benzylamino)-3-isopropylpyrazolo[1,5-a]pyrimidin-5-ylamino)butane-1,2,4-triol] |  |  |  |  | 87 | 89 | 101 |  | 98 | 92 | 120 | 19 |  |  |  |  |  | 
5 | CC(C)c1cnn2c(NCc3ccccc3F)cc(NCCCCCN)nc12 [ICEC-0232] |  |  |  |  |  |  |  |  |  | 105 |  |  | 74 | 106 | 38 | 9 | 87 | 84
